Measurements taken from US7217831B2 (priority 2001, dated 2007).

Tests used:
[1] = tested on: Helicoverpa armigera larvae; assay: Glasshouse trial on geranium seedlings, racemic and isomeric C1 (Example 20); type: in vivo; settings: Trial 1; 25 mM dose sprayed on geranium
Helicoverpa spp. larvae = assay: Field trial, commercial cotton crop, Kununurra (Example 19); type: in vivo, Helicoverpa armigera; settings: C1 plus EDTA 1.0 kg/ha each

SMILES	Estimated leaf damage (%) at 7 DAA [1]	Mean number of larvae/leaf at 7 DAA [1]	Mean number TLVA*/10 Terminals, 3 DAA (Helicoverpa spp. larvae; 3 days after application, C1 2.0 kg/ha, EDTA 2.0 kg/ha)	efficacy against Helicoverpa spp. infesting cotton (in words) (Helicoverpa spp. larvae; EDTA alone 2.0 kg/ha)	Mean number TLVA*/10 Terminals, −1 DAA (Helicoverpa spp. larvae; pre-application count, C1 2.0 kg/ha, EDTA 2.0 kg/ha)
CC(C)[C@H](NCP(=O)(O)O)C(=O)O [D-C1, N-phosphonomethyl valine]	55%	3.5			
CC(C)[C@H](NCP(=O)(O)O)C(=O)O [L-C1, N-phosphonomethyl valine]	35%	2.3			
O=C(O)CN(CCN(CC(=O)O)CC(=O)O)CC(=O)O [EDTA, ethylenediaminetetraacetic acid]			6.0	no apparent influence on larval survival	0.0
